Laboratory results: patent US6531598B1, “Naphthostyrils” (Hoffmann-La Roche Inc., priority 2001, dated 2003)
Where a name gives a salt, the structure may show the parent alone.

Experiments:
human Cyclin E/CDK2 = target: T1, human Cyclin E/CDK2 (Homo sapiens, UniProt P24941); assay: CDK2 FlashPlate Assay; assay type: biochemical; conditions: inhibition of Rb phosphorylation, 33P-ATP, 25 minutes at room temperature
T1 construct: made in house; host or cells: insect cells
Method: To determine inhibition of CDK2 activity, purified recombinant retinoblastoma (Rb) protein was coated on 96 well FlashPlates (New England Nuclear, Boston, Mass.). […] Recombinant active human Cyclin E/CDK2 complexes were partially purified from extracts of insect cells. […] Plates were incubated for 25 minutes at room temperature with shaking, then washed and counted in the Topcount scintillation counter (Packard Instrument Co., Downers Grove, Ill.). Dilutions of test compounds were tested in duplicate in each assay. The percent inhibition of Rb phosphorylation, which is a measure of the inhibition of CDK2 activity, was determined according to the following formula: [formula]
where “test compound” refers to the average counts per minute of the test duplicates, “nonspecific” refers to the average counts per minute when no Cyclin E/CDK2 was added, and “total” refers to the average counts per minute when no compound was added.

[1] = test system: MDA-MB435 breast carcinoma cell line; assay: Tetrazolium dye proliferation assay, MDA-MB435; assay type: cell-based; conditions: MTT, 5 days post addition of test compound, 2000 cells per well
Method: (§1) The cell lines used were MDA-MB435, a breast carcinoma dell line and RKO, a colon carcinoma cell line.
(§2) Teh estrogen receptor negative epithelial breast carcinoma line (MDA-MB435) was purchased from American Type Cell Culture Collection (ATCC; Rockville, Md.) and was grown in the medium recommended by ATCC. For analysis of the test compounds on growth of these cells, the cells were plated at 2000 cells per well in a 96-well tissue culture plate, and were incubated overnight at 37° C. with 5% CO2. The next day, the test compounds were dissolved in 100% dimethyl sulfoxide (DMSO) to yield a 10 mM stock solution. […] The compounds were then serially diluted in medium with 1.2% DMSO. One-fourth final volume of the diluted compounds was transferred to 96 well plates. Test compounds were assayed in duplicate. DMSO was added to a row of “control cells” such that the final concentration of DMSO in each well was 0.3%. Wells to which no cells were added served as the “blank.” Wells to which no inhibitor was added served as “no inhibitor control”. The plates were returned to the incubator, and 5 days post addition of test compound, were analyzed as described below.
(§3) 3-(4,5-Dimethylthiazole-2-yl)-2,5-diphenyl-2H-tetrazolium bromide (thiazolyl blue; MTT) was added to each well to yield a final concentration of 1 mglmL. The plates were then incubated at 37° C. for 3 hours. The plates were centrifuged at 1000 rpm for 5 minutes prior to aspiration of the MTT-containing medium. The MTT-containing medium was then removed and 100 μL 100% EtOH was added to each well to dissolve the resulting formazan metabolite. To ensure complete dissolution, plates were shaken for 15 minutes at room temperature. Absorbencies were read in a microliter plate reader (Molecular Dynamics) at a wavelength of 570 nm with a 650 nm reference. Percent inhibition was calculated by subtracting the absorbency of the blank (no cell) wells from all wells, then subtracting the division of the average absorbency of each test duplicate by the average of the controls from 1.00. Inhibitory concentrations (IC50) were determined from the linear regression of a plot of the logarithm of the concentration versus the percent inhibition.

[2] = test system: RKO colon carcinoma cell line; assay: Tetrazolium dye proliferation assay, RKO; assay type: cell-based; conditions: MTT, 5 days post addition of test compound, 500 cell per well
Method: as §1, §2, §3
The colon carcinoma line RKO was also obtained from the ATCC and was tested according to the same protocol provided above except that the cell line RKO was plated at 500 cell per well.

[3] = Homo sapiens, MDA-MB-435, 120 h

Row | IC50 (human Cyclin E/CDK2) [µM] | IC50 [1, 3] [µM] | IC50 ([2]; Colon carcinoma cell, 120 h) [µM] | IC50 [1] [µM] | IC50 [2] [µM] | Compound
1 | ≤ 10 | ≤ 10 | ≤ 10 | – | – | O=C1Nc2ccc(F)c3c(S(=O)(=O)CCO)cc(-c4ccc[nH]4)c1c23 [Example 38, 6-Fluoro-5-(2-hydroxy-ethanesulfonyl)-3-(1H-pyrrol-2-yl)-1H-benzo[cd]indol-2-one]
2 | ≤ 10 | – | – | – | – | CCOc1cc(-c2ccc[nH]2)c2c3c(ccc(F)c13)NC2=O [Example 14, 5-Ethoxy-6-fluoro-3-(1H-pyrrol-2-yl)-1H-benzo[cd]indol-2-one]
3 | ≤ 10 | – | – | – | – | NCCOc1cc(-c2ccc[nH]2)c2c3c(ccc(F)c13)NC2=O [Example 20, 5-(2-Amino-ethoxy)-6-fluoro-3-(1H-pyrrol-2-yl)-1H-benzo[cd]indol-2-one methanesulfonic acid salt]
4 | – | ≤ 10 | ≤ 10 | – | – | NCCOc1cc(-c2ccc[nH]2)c2c3c(ccc(F)c13)NC2=O [Example 19, 5-(2-Amino-ethoxy)-6-fluoro-3-(1H-pyrrol-2-yl)-1H-benzo[cd]indol-2-one]
5 | – | ≤ 10 | ≤ 10 | – | – | O=C1Nc2ccc(F)c3c(N4CCCC(CO)C4)cc(-c4ccc[nH]4)c1c23 (centres unmarked) [Example 34, 6-Fluoro-5-(3-hydroxymethyl-piperidin-1-yl)-3-(1H-pyrrol-2-yl)-1H-benzo[cd]indol-2one]
6 | ≤ 10 | ≤ 10 | ≤ 10 | – | – | NCCCNc1cc(-c2ccc[nH]2)c2c3c(ccc(F)c13)NC2=O [Example 21, 5-(3-Amino-propylamino)-6-fluoro-3-(1H-pyrrol-2-yl)-1H-benzo[cd]indol-2-one acetic acid salt]
7 | ≤ 10 | ≤ 10 | ≤ 10 | – | – | NCCSc1cc(-c2ccc[nH]2)c2c3c(ccc(F)c13)NC2=O [Example 40, 5-(2-Amino-ethylsulfanyl)-6-fluoro-3-(1H-pyrrol-2-yl)-1H-benzo[cd]indol-2-one]
8 | ≤ 10 | ≤ 10 | ≤ 10 | – | – | O=C1Nc2ccc(F)c3c(SCCO)cc(-c4ccc[nH]4)c1c23 [Example 36, 6-Fluoro-5-(2-hydroxyethylsulfanyl)-3-(1H-pyrrol-2-yl)-1H-benzo[cd]indol-2-one]
9 | – | ≤ 10 | ≤ 10 | – | – | NCC[S+]([O-])c1cc(-c2ccc[nH]2)c2c3c(ccc(F)c13)NC2=O (centres unmarked) [Example 42, 5-(2-Amino-ethanesulfinyl)-6-fluoro-3-(1H-pyrrol-2-yl)-1H-benzo[cd]indol-2-one]
10 | ≤ 10 | – | – | – | – | Cc1cc(-c2ccc[nH]2)c2c3c(ccc(F)c13)NC2=O [Example 25, 6-Fluoro-5-methyl-3-(1H-pyrrol-2-yl)-1H-benzo[cd]indol-2-one]
11 | ≤ 10 | ≤ 10 | ≤ 10 | – | – | CC(C)(N)CNc1cc(-c2ccc[nH]2)c2c3c(ccc(F)c13)NC2=O [Example 22, 5-(2-Amino-2-methyl-propylamino)-6-fluoro-3-(1H-pyrrol-2-yl)-1H-benzo[cd]indol-2-one]
12 | ≤ 10 | ≤ 10 | ≤ 10 | – | – | O=C1Nc2ccc(F)c3c(NCCO)cc(-c4ccc[nH]4)c1c23 [Example 15, 6-Fluoro-5-(2-hydroxy-ethylamino)-3-(1H-pyrrol-2-yl)-1H-benzo[cd]indol-2-one]
13 | ≤ 10 | ≤ 10 | ≤ 10 | – | – | NCCS(=O)(=O)c1cc(-c2ccc[nH]2)c2c3c(ccc(F)c13)NC2=O [Example 44, 5-(2-Amino-ethanesulfonyl)-6-fluoro-3-(1H-pyrrol-2-yl)-1H-benzo[cd]indol-2-one]
14 | ≤ 10 | – | – | – | – | O=C1Nc2ccc(F)c3c(OCCCO)cc(-c4ccc[nH]4)c1c23 [Example 17, 6-Fluoro-5-(3-hydroxy-propoxy)-3-(1H-pyrrol-2-yl)-1H-benzo[cd]indol-2-one]
15 | ≤ 10 | – | – | – | – | CCN(CC)CCNc1cc(-c2ccc[nH]2)c2c3c(ccc(F)c13)NC2=O [Example 31, 5-(2-Diethylamino-ethylamino)-6-fluoro-3-(1H-pyrrol-2-yl)-1H-benzo[cd]indol-2-one]
16 | ≤ 10 | ≤ 10 | ≤ 10 | – | – | O=C1Nc2ccc(F)c3c(N4CC[C@@H](O)C4)cc(-c4ccc[nH]4)c1c23 [Example 32]
17 | ≤ 10 | ≤ 10 | ≤ 10 | – | – | O=C1Nc2ccc(F)c3ccc(-c4ccc[nH]4)c1c23 [Example 7, 6-Fluoro-3-(1H-pyrrol-2-yl)-1H-benzo[cd]indol-2-one]
18 | ≤ 10 | – | – | – | – | CC(=O)NCCNc1cc(-c2ccc[nH]2)c2c3c(ccc(F)c13)NC2=O [Example 29, N-[2-[6-Fluoro-2oxo-3-(1H-pyrrol-2-yl)-1,2-dihydro-benzo[cd]indol-5-ylamino]-ethyl]-acetamide]
19 | – | ≤ 10 | ≤ 10 | – | – | O=C1Nc2ccc(F)c3c(N4CCCC(O)C4)cc(-c4ccc[nH]4)c1c23 (centres unmarked) [Example 35, 6-Fluoro-5-(3-hydroxy-piperidin-1-yl)-3-(1H-pyrrol-2-yl)-1H-benzo[cd]indol-2-one]
20 | ≤ 10 | ≤ 10 | ≤ 10 | – | – | O=C1Nc2ccc(F)c3c(N4CCC(O)CC4)cc(-c4ccc[nH]4)c1c23 [Example 33, 6-Fluoro-5-(4-hydroxy-piperidin-1-yl)-3-(1H-pyrrol-2-yl)-1H-benzo[cd]indol-2-one]
21 | ≤ 10 | ≤ 10 | ≤ 10 | – | – | Cc1c[nH]c(-c2cc(SCCN)c3c(F)ccc4c3c2C(=O)N4)c1C [Example 50, 5-(2-Amino-ethylsulfanyl)-6-fluoro-3-(3,4-dimethyl-1H-pyrrol-2-yl)-1H-benzo[cd]indol-2-one trifluoroacetic acid salt]
22 | ≤ 10 | – | – | – | – | CCC(C)c1cc(-c2ccc[nH]2)c2c3c(ccc(F)c13)NC2=O (racemic) [Example 26, (rac)-5-sec-Butyl-6-fluoro-3-(1H-pyrrol-2-yl)-1H-benzo[cd]indol-2-one]
23 | ≤ 10 | – | – | – | – | O=C1Nc2ccc(F)c3c(N4CCNC4=O)cc(-c4ccc[nH]4)c1c23 [Example 28, 6-Fluoro-5-(2-oxo-imidazolidin-1-yl)-3-(1H-pyrrol-2-yl)-1H-benzo[cd]indol-2-one]
24 | ≤ 10 | ≤ 10 | ≤ 10 | – | – | O=C1Nc2ccc(F)c3c(N4CCOCC4)cc(-c4ccc[nH]4)c1c23 [Example 23, 6-Fluoro-5-morpholin-4-yl-3-(1H-pyrrol-2-yl)-1H-benzo[cd]indol-2-one]
25 | – | – | ≤ 10 | – | – | O=C1Nc2ccc(F)c3c([S+]([O-])CCO)cc(-c4ccc[nH]4)c1c23 (centres unmarked) [Example 37, 6-Fluoro-5-(2-hydroxy-ethanesulfinyl)-3-(1H-pyrrol-2-yl)-1H-benzo[cd]indol-2-one]
26 | ≤ 10 | ≤ 10 | ≤ 10 | – | – | O=C1Nc2ccc(F)c3c2C1=C(c1ccc[nH]1)CC3 [Example 6, 6-fluoro-3-(1H-pyrrol-2-yl)-4,5-dihydro-1H-benzo[cd]indol-2-one]
27 | – | – | – | ≤ 10 | ≤ 10 | NCC[S+]([O-])c1cc(-c2ccc[nH]2)c2c3c(ccc(F)c13)NC2=O (centres unmarked) [Example 43, 5-(2-Amino-ethanesulfinyl)-6-fluoro-3-(1H-pyrrol-2-yl)-1H-benzo[cd]indol-2-one hydrochloride salt]
28 | ≤ 10 | ≤ 10 | ≤ 10 | – | – | COc1cc(-c2ccc[nH]2)c2c3c(ccc(F)c13)NC2=O [Example 13, 6-Fluoro-5-methoxy-3-(1H-pyrrol-2-yl)-1H-benzo[cd]indol-2-one]
29 | ≤ 10 | – | – | – | – | CCc1cc(-c2ccc[nH]2)c2c3c(ccc(F)c13)NC2=O [Example 27, 5-Ethyl-6-fluoro-3-(1H-pyrrol-2-yl)-1H-benzo[cd]indol-2-one]

Row | Compound | IC50 (human Cyclin E/CDK2) [µM] | IC50 [1, 3] [µM] | IC50 ([2]; Colon carcinoma cell, 120 h) [µM] | IC50 [1] [µM] | IC50 [2] [µM]
30 | O=C1Nc2ccc(F)c3c(N4CCNCC4)cc(-c4ccc[nH]4)c1c23 [Example 24, 6-Fluoro-5-piperazin-1-yl-3-(1H-pyrrol-2-yl)-1H-benzo[cd]indol-2-one acetic acid salt] | ≤ 10 | ≤ 10 | ≤ 10 | – | –
